Data published in patent publication US8314112B2 (Novartis AG, priority 2008, dated 2012).

target: T1, human ALK5 (kinase domain, ALK5 T204D) (Homo sapiens, UniProt P36897, T204D); assay: ALK5 kinase assay ([33P] phosphate incorporation into casein); assay type: biochemical; conditions: casein substrate, 1 μM unlabelled ATP
T1 construct: The kinase domain of human ALK5 (amino acids 200-503); made in house; host or cells: insect cells (baculovirus)
T1 sequence (P36897 200-503 T204D): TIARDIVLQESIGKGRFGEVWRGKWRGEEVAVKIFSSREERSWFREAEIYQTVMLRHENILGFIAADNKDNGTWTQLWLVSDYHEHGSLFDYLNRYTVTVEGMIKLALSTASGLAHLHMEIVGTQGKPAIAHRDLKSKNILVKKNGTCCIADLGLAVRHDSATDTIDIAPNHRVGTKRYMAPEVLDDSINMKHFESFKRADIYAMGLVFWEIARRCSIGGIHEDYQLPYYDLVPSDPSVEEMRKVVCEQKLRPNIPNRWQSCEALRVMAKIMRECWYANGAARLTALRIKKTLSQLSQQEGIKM
Protocol: The kinase activity of ALK5 is assessed by measuring radiolabelled phosphate [33P] incorporation in to the generic substrate, casein. The kinase domain of human ALK5 (amino acids 200-503) is fused to an N-terminal histidine tag. The kinase activity of ALK5 is rendered constitutive via point mutation at amino acid 204 (threonine to aspartate modification, ALK5 T204D) and the kinase construct is engineered to be expressed from a baculovirus expression construct in insect cells. The purified, recombinantly-expressed histidine-tagged ALK5 T204D protein is dissolved at 5.4 mg/ml in 50 mM Tris-HCl pH 8.0, 150 mM NaCl, 5 mM DTT. ALK5 T204D is dissolved to 2.5 μg/ml in assay buffer (Assay buffer: 20 mM Tris-HCl pH 7.4, 10 mM MgCl2, 2 mM MnCl2) on the day of use.
Test compounds and reference compounds are dissolved in assay buffer without DTT containing 5% (v/v) DMSO. Stock solutions of test and reference compounds are diluted in assay buffer with DTT (1.25 mM) containing 4.5% (v/v) DMSO. 10 μl of test or reference compound are added to the appropriate wells of 96 well U-bottomed plate. Total enzyme activity is determined by measuring ALK5 T204D activity in the absence of ALK5 kinase inhibitor reference compounds. Non-specific binding (NSB) is determined by measuring the activity of ALK5 T204D in the presence of ALK5 kinase inhibitor reference compounds. 10 μl of dephosphorylated casein stock solution (dephosphorylated casein is dissolved in ddH2O at 20 mg/ml) is added per well (200 μg/well final assay concentration). 20 μl of ALK5 T204D (2.5 μg/ml solution) is added per well (50 ng/well final assay concentration). The plates are left to incubate at room temperature for 10 minutes.
10 μl of ATP mix is added to the well to initiate the reaction (0.66 nM [^33P]ATP/1 μM unlabelled ATP/well final assay concentration). The ATP mix is prepared as follows, unlabelled ATP (3 mM) is dissolved in ddH2O and pH adjusted to 7.4. The stock concentration of [^33P]ATP is 10 μCi/μl. The appropriate volume of [^33P]ATP is added to unlabelled ATP solution such that the final assay concentration per well is 0.1 μCi. Following addition of the ATP mix, the plates are incubated at room temperature for 50 minutes. The kinase reaction is terminated by the addition of 50 μL Stop Buffer (20 mM Tris-HCl pH 7.4, 10 mM EDTA).
75 μl/well from the reaction plate is transferred to a Multiscreen-IP plate (MultiScreen-IP plates are prepared by added 50 μL of 70% (v/v) ethanol per well and incubated for 5 minutes at room temperature. The ethanol is removed by aspiration via a MultiScreen HTS Vaccum Manifold unit (Millipore, Cat no: MSVMHT500). The plates are washed twice by adding 200 μl/well ddH2O). The MultiScreen-IP plate is incubated at room temperature for 30 minutes to allowing binding of casein to the plate. The MultiScreen-IP plates are washed three times by adding 200 μl/well 100 mM phosphoric acid solution and the gasket is carefully removed from the back of the MultiScreen-IP plate and the plate dried in the oven for 30 minutes. The MultiScreen-IP plate is backsealed, 50 μL of Microscint™20 is added, then the plates are topsealed and radiolabelled casein detected and quantified on a TopCount™ plate-reader using the ^33P scintillation protocol.

| SMILES | IC50 [µM] |
| --- | --- |
| Cc1cccc(-c2nc(-c3cncc(-c4ccccc4C)c3)c3cc[nH]c3n2)n1 [Example 32, 2-(6-Methyl-pyridin-2-yl)-4-(5-o-tolyl-pyridin-3-yl)-7H-pyrrolo[2,3-d]pyrimidine] | 0.762 |
| Cc1cccc(-c2nc(-c3cncc(-c4ccccc4Cl)c3)c3cc[nH]c3n2)n1 [Example 33, 4-[5-(2-Chloro-phenyl)-pyridin-3-yl]-2-(6-methyl-pyridin-2-yl)-7H-pyrrolo[2,3-d]pyrimidine] | 0.09 |
| Cc1cccc(-c2nc(-c3cncc(N4CCN(C)CC4)c3)c3cc[nH]c3n2)n1 [Example 41, 4-[5-(4-Methyl-piperazin-1-yl)-pyridin-3-yl]-2-(6-methyl-pyridin-2-yl)-7H-pyrrolo[2,3-d]pyrimidine] | 0.13 |
| Brc1cncc(-c2nc(-c3ccccn3)nc3[nH]ccc23)c1 [Example 44, 4-(5-Bromo-pyridin-3-yl)-2-pyridin-2-yl-7H-pyrrolo[2,3-d]pyrimidine] | 0.424 |
| Cc1cccc(-c2cc(-c3cccnc3)c3cc[nH]c3n2)n1 [Example 46, 6-(6-methyl-pyridin-2-yl)-4-pyridin-3-yl-1H-pyrrolo[2,3-b]pyridine] | 0.264 |
| Cc1cccc(-c2nc(-c3cncc(N4CCCCC4)c3)c3cc[nH]c3n2)n1 [Example 48, 5′-[2-(6-Methyl-pyridin-2-yl)-7H-pyrrolo[2,3-d]pyrimidin-4-yl]-3,4,5,6-tetrahydro-2H-[1,3′]bipyridinyl] | 1.34 |
| Cc1cccc(-c2nc(-c3cncc(N4CCC(O)CC4)c3)c3cc[nH]c3n2)n1 [Example 49, 5′-[2-(6-Methyl-pyridin-2-yl)-7H-pyrrolo[2,3-d]pyrimidin-4-yl]-3,4,5,6-tetrahydro-2H-[1,3′]bipyridinyl-4-ol] | 1.08 |
| Cc1cccc(-c2nc(-c3cncc(NC(=O)CCN)c3)c3cc[nH]c3n2)n1 [Example 50, 3-amino-N-{5-[2-(6-methyl-pyridin-2-yl)-7H-pyrrolo[2,3-d]pyrimidin-4-yl]-pyridin-3-yl}-propionamide] | 0.149 |
| Cc1cccc(-c2nc(-c3cncc(N4CCOCC4)c3)c3cc[nH]c3n2)n1 [Example 51, 2-(6-Methyl-pyridin-2-yl)-4-(5-morpholin-4-yl-pyridin-3-yl)-7H-pyrrolo[2,3-d]pyrimidine] | 0.66 |
| CC(=O)NCCCC(=O)Nc1cncc(-c2nc(-c3cccc(C)n3)nc3[nH]ccc23)c1 [Example 52, 4-Acetylamino-N-{5-[2-(6-methyl-pyridin-2-yl)-7H-pyrrolo[2,3-d]pyrimidin-4-yl]-pyridin-3-yl}-butyramide] | 0.435 |
| CC(=O)NCCC(=O)Nc1cncc(-c2nc(-c3cccc(C)n3)nc3[nH]ccc23)c1 [Example 53, 3-Acetylamino-N-{5-[2-(6-methyl-pyridin-2-yl)-7H-pyrrolo[2,3-d]pyrimidin-4-yl]-pyridin-3-yl}-propionamide] | 0.57 |
| Cc1cccc(-c2nc(-c3cncc(NC(=O)CCO)c3)c3cc[nH]c3n2)n1 [Example 54, 3-Hydroxy-N-{5-[2-(6-methyl-pyridin-2-yl)-7H-pyrrolo[2,3-d]pyrimidin-4-yl]-pyridin-3-yl}-propionamide] | 0.119 |
| Cc1cccc(-c2nc(-c3cnccc3C)c3cc[nH]c3n2)n1 [Example 55, 4-(4-Methyl-pyridin-3-yl)-2-(6-methyl-pyridin-2-yl)-7H-pyrrolo[2,3-d]pyrimidine] | 0.813 |

Molecules with a lower IC50, results first:

| IC50 [µM] | SMILES |
| --- | --- |
| 0.085 | Cc1cccc(-c2nc(-c3cncc(NC(=O)CCN(C)C)c3)c3cc[nH]c3n2)n1 [Example 31, 3-Dimethylamino-N-{5-[2-(6-methyl-pyridin-2-yl)-7H-pyrrolo[2,3-d]pyrimidin-4-yl]-pyridin-3-yl}-propionamide] |
| 0.064 | Cc1cccc(-c2nc(-c3cncc(NC(=O)CCCN(C)C)c3)c3cc[nH]c3n2)n1 [Example 30, 4-Dimethylamino-N-{5-[2-(6-methyl-pyridin-2-yl)-7H-pyrrolo[2,3-d]pyrimidin-4-yl]-pyridin-3-yl}-butyramide] |
| 0.051 | Cc1cccc(-c2nc(-c3cncc(-c4cccc(CN5CCN(C(C)C)CC5)c4)c3)c3cc[nH]c3n2)n1 [Example 34, 4-{5-[3-(4-Isopropyl-piperazin-1-ylmethyl)-phenyl]-pyridin-3-yl}-2-(6-methyl-pyridin-2-yl)-7H-pyrrolo[2,3-d]pyrimidine] |
| 0.044 | Cc1cccc(-c2nc(-c3cncc(-c4ccc(CN5CCN(C(C)C)CC5)cc4)c3)c3cc[nH]c3n2)n1 [Example 35, 4-{5-[4-(4-Isopropyl-piperazin-1-ylmethyl)-phenyl]-pyridin-3-yl}-2-(6-methyl-pyridin-2-yl)-7H-pyrrolo[2,3-d]pyrimidine] |
| 0.033 | Cc1cccc(-c2nc(-c3cncc(-c4cccc(CN(C)C)c4)c3)c3cc[nH]c3n2)n1 [Example 37, Dimethyl-(3-{5-[2-(6-methyl-pyridin-2-yl)-7H-pyrrolo[2,3-d]pyrimidin-4-yl]-pyridin-3-yl}-benzyl)-amine] |
| 0.028 | COc1cncc(-c2cc(-c3cccc(C)n3)nc3[nH]ccc23)c1 [Example 47, 4-(5-Methoxy-pyridin-3-yl)-6-(6-methyl-pyridin-2-yl)-1H-pyrrolo[2,3-b]pyridine] |
| 0.019 | CN1CCN(Cc2cccc(-c3cncc(-c4nc(-c5ccccn5)nc5[nH]ccc45)c3)c2)CC1 [Example 45, 4-{5-[3-(4-Methyl-piperazin-1-ylmethyl)-phenyl]-pyridin-3-yl}-2-pyridin-2-yl-7H-pyrrolo[2,3-d]pyrimidine] |
| 0.017 | CN1CCN(C(=O)c2ccc(-c3cncc(-c4nc(-c5ccccn5)nc5[nH]ccc45)c3)cc2)CC1 [Example 42, (4-Methyl-piperazin-1-yl)-{4-[5-(2-pyridin-2-yl-7H-pyrrolo[2,3-d]pyrimidin-4-yl)-pyridin-3-yl]-phenyl}-methanone] |
| 0.012 | Cc1cccc(-c2nc(-c3cncc(-c4ccc(CN(C)C)cc4)c3)c3cc[nH]c3n2)n1 [Example 38, Dimethyl-(4-{5-[2-(6-methyl-pyridin-2-yl)-7H-pyrrolo[2,3-d]pyrimidin-4-yl]-pyridin-3-yl}-benzyl)-amine] |
| 0.008 | CNCc1cccc(-c2cncc(-c3nc(-c4cccc(C)n4)nc4[nH]ccc34)c2)c1 [Example 36, Methyl-(3-{5-[2-(6-methyl-pyridin-2-yl)-7H-pyrrolo[2,3-d]pyrimidin-4-yl]-pyridin-3-yl}-benzyl)-amine] |
| 0.006 | CNCc1ccc(-c2cncc(-c3nc(-c4cccc(C)n4)nc4[nH]ccc34)c2)cc1 [Example 39, Methyl-(4-{5-[2-(6-methyl-pyridin-2-yl)-7H-pyrrolo[2,3-d]pyrimidin-4-yl]-pyridin-3-yl}-benzyl)-amine] |
| 0.006 | CN1CCN(Cc2ccc(-c3cncc(-c4nc(-c5ccccn5)nc5[nH]ccc45)c3)cc2)CC1 [Example 43, 4-{5-[4-(4-Methyl-piperazin-1-ylmethyl)-phenyl]-pyridin-3-yl}-2-pyridin-2-yl-7H-pyrrolo[2,3-d]pyrimidine] |
| 0.003 | Cc1cccc(-c2nc(-c3cncc(-c4ccc(C(=O)N5CCNCC5)cc4)c3)c3cc[nH]c3n2)n1 [Example 40, (4-{5-[2-(6-Methyl-pyridin-2-yl)-7H-pyrrolo[2,3-d]pyrimidin-4-yl]-pyridin-3-yl}-phenyl)-piperazin-1-yl-methanone] |
